We go through 25 compounds from patent US20230055321A1, “PYRIMIDOPYRROLE SPIRO COMPOUNDS AND DERIVATIVES THEREOF AS DNA-PK INHIBITORS” (MEDSHINE DISCOVERY INC., priority 2019, published 2023).

One series addresses Human-derived DNA-PK (Homo sapiens, UniProt P78527). Description: DNA-dependent protein kinase (DNA-PK) inhibitory activity screening experiment (Eurofins, HTRF). It counts as biochemical. Conditions: 50 nM GST-cMyc-p53, 30 minutes at room temperature. The protocol: Experimental Method (Eurofins Pharma Discovery Service) DNA-PK (h) was incubated in assay buffer containing 50 nM GST-cMyc-p53 and Mg/ATP (according to the required concentration). The reaction was initiated by adding Mg/ATP mixture. After 30 minutes of incubation at room temperature, the reaction was stopped by the addition of stop solution containing EDTA. Finally, detection buffer (containing labeled anti-GST monoclonal antibody and europium-labeled anti-Ser15 antibody against phosphorylated p53) was added.

The nature of series [1]: Pharmacokinetic evaluation in mice, plasma, IV and PO. The format is in vivo. Conditions: Balb/c male mice; for AUC0-last / T1/2 / Tlast / Tmax / C0 / clearance / Vd / Cmax / AUC(0-t) / half-life: plasma; for F: PO (2 mg/kg) vs IV (0.4 mg/kg); for Vd: read-out: Vdss. The procedure:
The test compound was mixed with 10% dimethyl sulfoxide/50% polyethylene glycol 200/40% water, vortexed and sonicated to prepare a nearly clear solution of 0.08 mg/mL, which was filtered with a microporous membrane for use. Balb/c male mice of 18 to 20 grams were selected, and the candidate compound solution was administered intravenously at a dose of 0.4 mg/kg. The test compound was mixed with 10% dimethyl sulfoxide/50% polyethylene glycol 200/40% water, vortexed and sonicated to prepare a nearly clear solution of 0.2 mg/mL, which was filtered with a microporous membrane for use. Balb/c male mice of 18 to 20 grams were selected, and the candidate compound solution was orally administered at a dose of 2 mg/kg. Whole blood was collected for a certain period of time, and plasma was prepared, then drug concentration was analyzed by LC-MS/MS method, and pharmacokinetic parameters were calculated by Phoenix WinNonlin software (Pharsight, USA).
IV: intravenous administration; PO: oral administration; C0: instantaneous required concentration after intravenous injection; Cmax: maximum blood drug concentration after administration; Tmax: time required to reach the peak drug concentration after administration; T1/2: time required for the blood drug concentration to decrease by half; Vdss: apparent volume of distribution, refers to the proportional constant of the drug dose in vivo and the blood drug concentration when the drug reaches a dynamic equilibrium in vivo. Cl: clearance rate, refers to the apparent volume of distribution of the drug cleared in vivo per unit time; Tlast: time at the last detection point; AUC0-last: area under the drug-time curve, refers to the area surrounded by the blood drug concentration curve to the time axis; F: a measure of the speed and degree of drug absorption into the blood circulation, which is an important index for evaluating the degree of drug absorption.

Setting [2] is: ATP: 10 μM, read-out: DNA-PK kinase inhibitory activity IC50.
Where [3] appears, read: mouse, PO (2 mg/kg), read-out: Tmax.

SMILES strings stand for the structures. Like-named read-outs stand apart in the source and are kept apart here.

As to `Cc1cc2ncnn2cc1Nc1ncc2c(n1)C1(CCC3(CC1)COC3)C(=O)N2C` [Compound 13], on Human-derived DNA-PK (setting [2]), the IC50 was 6 nM.
For the compound `Cc1cc2ncnn2cc1Nc1ncc2c(n1)C1(CCC3(CC3)CC1)C(=O)N2C` [Compound 15], the IC50 on Human-derived DNA-PK (setting [2]) stood at 4 nM. In series [1] (IV (0.4 mg/kg)), this compound registered an AUC0-last of 0.454 µM·h, a T1/2 of 15.2 min and a Tlast of 2 h. Besides, the F in series [1] is reported as 83%. In series [1] (PO (2 mg/kg)), the AUC0-last is 1.882 µM·h, the T1/2 worked out at 59.8 min, the Tlast is reported as 8 h and the Tmax worked out at 15 min. Further, in series [1] (mouse, IV (0.4 mg/kg)), the C0 was 1230 nM, the clearance turned out to be 37.6 mL/min/kg and the Vd came to 0.853 L/kg. Besides, the highest level in series [1] (mouse, PO (2 mg/kg)) (Cmax) was 1640 nM.
With `CC(=O)N1CCC2(CC1)C(=O)N(C)c1cnc(Nc3cn4ncnc4cc3C)nc12` [Compound 6], the IC50 on Human-derived DNA-PK (setting [2]) came to 6 nM.
Take `CON=C1CCC2(CC1)C(=O)N(C)c1cnc(Nc3cn4ncnc4cc3C)nc12` (stereo not shown) [Compound 14]: on Human-derived DNA-PK (setting [2]), the IC50 stood at 11 nM.
The same measure, in the same setting: to `COC1(C)CCC2(CC1)C(=O)N(C)c1cnc(Nc3cn4ncnc4cc3C)nc12` (single isomer, unassigned) [Compound 28] belongs 3 nM; to `Cc1cc2ncnn2cc1Nc1ncc2c(n1)C1(CCC(O)CC1)C(=O)N2C` (single isomer, unassigned) [Compound 22], 11 nM.
Consider `Cc1cc2ncnn2cc1Nc1ncc2c(n1)C1(CCS(=O)(=O)CC1)C(=O)N2C` [Compound 24], for which the IC50 on Human-derived DNA-PK (setting [2]) turned out to be 84 nM.
Regarding `Cc1cc2ncnn2cc1Nc1ncc2c(n1)C1(CC1)C(=O)N2C` [Compound 16], the IC50 on Human-derived DNA-PK (setting [2]) came out at 39 nM.
As to `Cc1cc2ncnn2cc1Nc1ncc2c(n1)C1(CCN(CC(F)(F)F)CC1)C(=O)N2C` [Compound 8], the IC50 at Human-derived DNA-PK (setting [2]) was 4 nM.
`Cc1cc2ncnn2cc1Nc1ncc2c(n1)C1(CCC(C)(C)CC1)C(=O)N2C` [Compound 12]: the IC50 at Human-derived DNA-PK (setting [2]) turned out to be 1 nM. In series [1] (IV (0.4 mg/kg)), this compound returned an AUC0-last of 0.358 µM·h, a T1/2 of 12.2 min and a Tlast of 1 h. The same compound yielded a F in series [1] of 114%. In series [1] (PO (2 mg/kg)), this compound yielded an AUC0-last of 2.036 µM·h, a Cmax of 1860 nM, a T1/2 of 29.5 min and a Tlast of 4 h. The time of peak concentration (Tmax) in series [1] (PO (2 mg/kg)) came out at 30 min. In series [1] (mouse, IV (0.4 mg/kg)), the C0 was 1280 nM, the clearance was 45.8 mL/min/kg and the Vd worked out at 0.794 L/kg.
For the compound `Cc1cc2ncnn2cc1Nc1ncc2c(n1)C1(CCN(C)CC1)C(=O)N2C` [Compound 7], the half-inhibitory concentration (IC50) at Human-derived DNA-PK (setting [2]) turned out to be 25 nM.
Still for that read-out and setting: to `Cc1cc2ncnn2cc1Nc1ncc2c(n1)C1(CCCCC1)C(=O)N2C` [Compound 2] belongs 6 nM; to `Cc1cc2ncnn2cc1Nc1ncc2c(n1)C1(CCC(C(F)(F)F)CC1)C(=O)N2C` (single isomer, unassigned) [Compound 18], 4 nM; to `Cc1cc2ncnn2cc1Nc1ncc2c(n1)C1(CCCOCC1)C(=O)N2C` (stereo not shown) [Compound 5], 16 nM.
On the same count and under the same terms, to `Cc1cc2ncnn2cc1Nc1ncc2c(n1)C1(CC=C(F)CC1)C(=O)N2C` (stereo not shown) [Compound 10] belongs 7 nM; to `COC1CCC2(CC1)C(=O)N(C)c1cnc(Nc3cn4ncnc4cc3C)nc12` (single isomer, unassigned) [Compound 4], 4 nM.
The same measure, in the same setting: to `COC1(C)CCC2(CC1)C(=O)N(C)c1cnc(Nc3cn4ncnc4cc3C)nc12` (single isomer, unassigned) [Compound 27] belongs 10 nM.
As to `Cc1cc2ncnn2cc1Nc1ncc2c(n1)C1(CCC(F)(F)CC1)C(=O)N2C` [Compound 9], at Human-derived DNA-PK (setting [2]), the IC50 stood at 3 nM. This compound showed a Tlast in series [1] (IV (0.4 mg/kg)) of 2 h. The F in series [1] worked out at 74.5%. This compound returned a Tlast in series [1] (PO (2 mg/kg)) of 4 h. In series [1] (mouse, IV (0.4 mg/kg)), this compound gave an AUC(0-t) of 0.311 µM·h, a C0 of 871 nM, a clearance of 53.4 mL/min/kg and a half-life of 14.5 min. For the same compound, the Vd in series [1] (mouse, IV (0.4 mg/kg)) stood at 1.07 L/kg. In series [1] (mouse, PO (2 mg/kg)), the AUC(0-t) was 1.16 µM·h, the Cmax was 1080 nM and the half-life was 28.7 min. The Tmax in series [1] (setting [3]) was found to be 30 min.
As for `Cc1cc2ncnn2cc1Nc1ncc2c(n1)C1(CCSCC1)C(=O)N2C` [Compound 23], the IC50 on Human-derived DNA-PK (setting [2]) was determined as 8 nM.
Take `Cc1cc2ncnn2cc1Nc1ncc2c(n1)C1(CCC(C(F)(F)F)CC1)C(=O)N2C` (single isomer, unassigned) [Compound 19]: the IC50 at Human-derived DNA-PK (setting [2]) worked out at 7 nM.
At Human-derived DNA-PK (DNA-PK kinase inhibitory activity IC50, ATP: 10 μM), `Cc1cc2ncnn2cc1Nc1ncc2c(n1)C1(CCOCC1)C(=O)N2C` [Compound 1] returned an IC50 of 39 nM.
With `Cc1cc2ncnn2cc1Nc1ncc2c(n1)C1(CCCC1)C(=O)N2C` [Compound 17], at Human-derived DNA-PK (setting [2]), the IC50 was 7 nM.
Regarding `Cc1cc2ncnn2cc1Nc1ncc2c(n1)C1(CCC3(CCC3)CC1)C(=O)N2C` [Compound 11], the IC50 on Human-derived DNA-PK (setting [2]) came to 1 nM. The Tlast in series [1] (IV (0.4 mg/kg)) turned out to be 2 h. In series [1], the F was 73.7%. In series [1] (PO (2 mg/kg)), this compound showed a Tlast of 4 h. In series [1] (mouse, IV (0.4 mg/kg)), the exposure AUC(0-t) stood at 0.349 µM·h, the C0 was determined as 1250 nM, the clearance was found to be 47.2 mL/min/kg and the half-life is 14.5 min. For the same compound, in series [1] (mouse, IV (0.4 mg/kg)), the Vd was 0.855 L/kg. In series [1] (mouse, PO (2 mg/kg)), the area under the curve AUC(0-t) stood at 1.29 µM·h, the Cmax came to 1220 nM and the half-life was 29.6 min. For the same compound, in series [1] (setting [3]), the Tmax was 30 min.
As for `Cc1cc2ncnn2cc1Nc1ncc2c(n1)C1(CCC(=O)CC1)C(=O)N2C` [Compound 20], the IC50 at Human-derived DNA-PK (setting [2]) was 15 nM.
Take `COC1CCC2(CC1)C(=O)N(C)c1cnc(Nc3cn4ncnc4cc3C)nc12` (single isomer, unassigned) [Compound 3]: the IC50 at Human-derived DNA-PK (setting [2]) is 10 nM.
